According to patent US6737383B1, “Herbicidal oxadiazolidines” (priority 1999, dated 2004):

Experiments:
surinam grass = experiment: Test B pre/postemergence surinam grass; format: in vivo, Brachiaria decumbens; conditions: for B. signalgrass plant response rating: scale of 0 to 10 where 0 is no effect and 10 is complete control
Procedure, shortened: (§1)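 Test chemicals in a non-phytotoxic solvent mixture with surfactant were sprayed preemergence onto planted seeds and postemergence onto plants 2 to 18 cm tall (1- to 4-leaf stage). After twelve to sixteen days in a greenhouse, injury was visually rated against untreated controls from 0 (no effect) to 10 (complete control).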

blackgrass = experiment: Test B pre/postemergence blackgrass; format: in vivo, Alopecurus myosuroides; conditions: for Blackgrass plant response rating: scale of 0 to 10 where 0 is no effect and 10 is complete control
Procedure, shortened: as §1

sugar beet = experiment: Test B pre/postemergence sugar beet; format: in vivo, Beta vulgaris; conditions: for Sugarbeets plant response rating: scale of 0 to 10 where 0 is no effect and 10 is complete control
Procedure, shortened: as §1

wild oat = experiment: Test B pre/postemergence wild oat; format: in vivo, Avena fatua; conditions: for Wild oats plant response rating: scale of 0 to 10 where 0 is no effect and 10 is complete control
Procedure, shortened: as §1

duck salad = experiment: Test B flood test duck salad; format: in vivo, Heteranthera limosa
Procedure, shortened: (§2)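 Flood test on plants grown to the 2-leaf stage; treated plants kept in greenhouse twelve to sixteen days, then visually rated against controls on a 0 (no effect) to 10 (complete control) scale.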

pigweed = experiment: Test B pre/postemergence pigweed; format: in vivo, Amaranthus retroflexus; conditions: for Redroot pigweed plant response rating: scale of 0 to 10 where 0 is no effect and 10 is complete control
Procedure, shortened: as §1

corn = experiment: Test B pre/postemergence corn; format: in vivo, Zea mays; conditions: for Corn plant response rating: scale of 0 to 10 where 0 is no effect and 10 is complete control
Procedure, shortened: as §1

crabgrass = experiment: Test B pre/postemergence crabgrass; format: in vivo, Digitaria sanguinalis; conditions: for Crabgrass plant response rating: scale of 0 to 10 where 0 is no effect and 10 is complete control
Procedure, shortened: as §1

rice = experiment: Test B flood test rice; format: in vivo, Oryza sativa
Procedure, shortened: as §2

cocklebur = experiment: Test B pre/postemergence cocklebur; format: in vivo, Xanthium strumarium; conditions: for Cocklebur plant response rating: scale of 0 to 10 where 0 is no effect and 10 is complete control
Procedure, shortened: as §1

soybean = experiment: Test B pre/postemergence soybean; format: in vivo, Glycine max; conditions: for Soybean plant response rating: scale of 0 to 10 where 0 is no effect and 10 is complete control
Procedure, shortened: as §1

velvetleaf = experiment: Test B pre/postemergence velvetleaf; format: in vivo, Abutilon theophrasti; conditions: for Velvetleaf plant response rating: scale of 0 to 10 where 0 is no effect and 10 is complete control
Procedure, shortened: as §1

morningglory = experiment: Test B pre/postemergence morningglory; format: in vivo, Ipomoea hederacea; conditions: for Morningglory plant response rating: scale of 0 to 10 where 0 is no effect and 10 is complete control
Procedure, shortened: as §1

giant foxtail = experiment: Test B pre/postemergence giant foxtail; format: in vivo, Setaria faberii; conditions: for Giant foxtail plant response rating: scale of 0 to 10 where 0 is no effect and 10 is complete control
Procedure, shortened: as §1

purple nutsedge = experiment: Test B pre/postemergence purple nutsedge; format: in vivo, Cyperus rotundus; conditions: for Nutsedge plant response rating: scale of 0 to 10 where 0 is no effect and 10 is complete control
Procedure, shortened: as §1

rape = experiment: Test B pre/postemergence rape; format: in vivo, Brassica napus; conditions: for Rape plant response rating: scale of 0 to 10 where 0 is no effect and 10 is complete control
Procedure, shortened: as §1

[1] = Postemergence, Rate 125 g/ha, scale 0 to 10, 0 is no effect, 10 is complete control
[2] = Postemergence, Rate 250 g/ha, scale 0 to 10, 0 is no effect, 10 is complete control
[3] = Preemergence, Rate 62 g/ha, scale 0 to 10 (0 no effect, 10 complete control)
[4] = Rate 500 g/ha, Postemergence, scale 0 to 10, 0 no effect, 10 complete control
[5] = Postemergence (flood test), Rate 125 g/ha, scale 0 to 10, 0 is no effect, 10 is complete control
[6] = Rate 62 g/ha, Postemergence (flood test species), scale of 0 to 10 where 0 is no effect and 10 is complete control
[7] = Rate 62 g/ha, flood test species, Pre-emergence, visual evaluation after twelve to sixteen days
[8] = Rate 125 g/ha, Pre-emergence, flood test species, scale 0 to 10 where 0 is no effect and 10 is complete control
[9] = Rate 250 g/ha, Pre-emergence, flood-test species, scale 0 to 10, 0 is no effect, 10 is complete control
[10] = Rate 500 g/ha, listed under Postemergence (flood test species), scale 0 to 10, 0 no effect, 10 complete control
[11] = Rate 500 g/ha, Pre-emergence, flood test species, scale 0 to 10 (0 no effect, 10 complete control)
[12] = flood test species, listed under Postemergence, Rate 250 g/ha, scale 0 to 10, 0 is no effect, 10 is complete control

CC1CC1n1c(=O)on(C(=O)N(c2ccc(Cl)cc2)C(C)C)c1=O (centres unmarked) [Compound 369]
3: Plant response rating, B. signalgrass (surinam grass; [4]) | Plant response rating, Velvetleaf (velvetleaf; [4]) | Plant response rating, Nutsedge (purple nutsedge; [4]) | Plant response rating, Rape (rape; [4])
5: Plant response rating, Blackgrass (blackgrass; [2]) | Blackgrass plant response rating (blackgrass; Preemergence, Rate 500 g/ha) | Plant response rating, Blackgrass (blackgrass; [4]) | Plant response rating, Crabgrass (crabgrass; [3]) | Nutsedge plant response rating (purple nutsedge; Preemergence, Rate 500 g/ha) | Rape plant response rating (rape; Preemergence, Rate 500 g/ha)
8: Plant response rating, Giant foxtail (giant foxtail; [3])
9: Crabgrass plant response rating (crabgrass; Preemergence, Rate 250 g/ha) | Plant response rating, Crabgrass (crabgrass; [4]) | Giant foxtail plant response rating (0 to 10 scale) (giant foxtail; Preemergence, Rate 125 g/ha) | Plant response rating, Giant foxtail (giant foxtail; [4])
0: Plant response rating, B. signalgrass (surinam grass; [1]) | Plant response rating, B. signalgrass (surinam grass; [2]) | Plant response rating, B. signalgrass (surinam grass; [3]) | B. signalgrass plant response rating (0 to 10 scale, 0 is no effect, 10 is complete control) (surinam grass; Preemergence, Rate 125 g/ha) | B. signalgrass plant response rating (surinam grass; Rate 62 g/ha, Postemergence) | Plant response rating, Blackgrass (blackgrass; [1]) | Plant response rating, Blackgrass (blackgrass; [3]) | Blackgrass plant response rating (0 to 10 scale) (blackgrass; Preemergence, Rate 125 g/ha) | Blackgrass plant response rating (blackgrass; Rate 62 g/ha, Postemergence) | Plant response rating, Sugarbeets (sugar beet; [1]) | Plant response rating, Sugarbeets (sugar beet; [2]) | Plant response rating, Sugarbeets (sugar beet; [3]) | Sugarbeets plant response rating (0 to 10 scale) (sugar beet; Preemergence, Rate 125 g/ha) | Sugarbeets plant response rating (sugar beet; Rate 62 g/ha, Postemergence) | Plant response rating, Wild oats (wild oat; [1]) | Plant response rating, Wild oats (wild oat; [2]) | Plant response rating, Wild oats (wild oat; [3]) | Wild oats plant response rating (0 to 10 scale) (wild oat; Preemergence, Rate 125 g/ha) | Wild oats plant response rating (wild oat; Preemergence, Rate 250 g/ha) | Wild oats plant response rating (wild oat; Rate 62 g/ha, Postemergence) | Plant response rating, Ducksalad (duck salad; [5]) | Ducksalad plant response rating (duck salad; [6]) | Plant response rating, Ducksalad (0 to 10 scale, 0 is no effect, 10 is complete control) (duck salad; [7]) | Ducksalad plant response rating (duck salad; [8]) | Ducksalad plant response rating (duck salad; [9]) | Ducksalad plant response rating (duck salad; [11]) | Plant response rating, Redroot pigweed (pigweed; [1]) | Plant response rating, Redroot pigweed (pigweed; [2]) | Plant response rating, Redroot pigweed (pigweed; [3]) | Redroot pigweed plant response rating (pigweed; Rate 62 g/ha, Postemergence) | Plant response rating, Corn (corn; [1]) | Plant response rating, Corn (corn; [2]) | Plant response rating, Corn (corn; [3]) | Corn plant response rating (0 to 10 scale) (corn; Preemergence, Rate 125 g/ha) | Corn plant response rating (corn; Preemergence, Rate 250 g/ha) | Corn plant response rating (corn; Preemergence, Rate 500 g/ha) | Corn plant response rating (corn; Rate 62 g/ha, Postemergence) | Plant response rating, Corn (corn; [4]) | Plant response rating, Crabgrass (crabgrass; [1]) | Crabgrass plant response rating (crabgrass; Rate 62 g/ha, Postemergence) | Plant response rating, Rice (rice; [5]) | Rice plant response rating (rice; [6]) | Plant response rating, Rice (0 to 10 scale, 0 is no effect, 10 is complete control) (rice; [7]) | Rice plant response rating (rice; [8]) | Rice plant response rating (rice; [9]) | Plant response rating, Rice (rice; [10]) | Rice plant response rating (rice; [11]) | Plant response rating, Rice (rice; [12]) | Plant response rating, Cocklebur (cocklebur; [1]) | Plant response rating, Cocklebur (cocklebur; [2]) | Plant response rating, Cocklebur (cocklebur; [3]) | Cocklebur plant response rating (0 to 10 scale) (cocklebur; Preemergence, Rate 125 g/ha) | Cocklebur plant response rating (cocklebur; Preemergence, Rate 250 g/ha) | Cocklebur plant response rating (cocklebur; Preemergence, Rate 500 g/ha) | Cocklebur plant response rating (cocklebur; Rate 62 g/ha, Postemergence) | Plant response rating, Cocklebur (cocklebur; [4]) | Plant response rating, Soybean (soybean; [1]) | Plant response rating, Soybean (soybean; [3]) | Soybean plant response rating (0 to 10 scale) (soybean; Preemergence, Rate 125 g/ha) | Soybean plant response rating (soybean; Preemergence, Rate 250 g/ha) | Soybean plant response rating (soybean; Rate 62 g/ha, Postemergence) | Plant response rating, Velvetleaf (velvetleaf; [1]) | Plant response rating, Velvetleaf (velvetleaf; [2]) | Plant response rating, Velvetleaf (velvetleaf; [3]) | Velvetleaf plant response rating (0 to 10 scale) (velvetleaf; Preemergence, Rate 125 g/ha) | Velvetleaf plant response rating (velvetleaf; Preemergence, Rate 250 g/ha) | Velvetleaf plant response rating (velvetleaf; Rate 62 g/ha, Postemergence) | Plant response rating, Morningglory (morningglory; [3]) | Morningglory plant response rating (0 to 10 scale) (morningglory; Preemergence, Rate 125 g/ha) | Morningglory plant response rating (morningglory; Preemergence, Rate 250 g/ha) | Morningglory plant response rating (morningglory; Preemergence, Rate 500 g/ha) | Plant response rating, Giant foxtail (giant foxtail; [1]) | Giant foxtail plant response rating (giant foxtail; Rate 62 g/ha, Postemergence) | Plant response rating, Nutsedge (purple nutsedge; [1]) | Plant response rating, Nutsedge (purple nutsedge; [2]) | Plant response rating, Nutsedge (purple nutsedge; [3]) | Nutsedge plant response rating (0 to 10 scale) (purple nutsedge; Preemergence, Rate 125 g/ha) | Nutsedge plant response rating (purple nutsedge; Preemergence, Rate 250 g/ha) | Nutsedge plant response rating (purple nutsedge; Rate 62 g/ha, Postemergence) | Plant response rating, Rape (rape; [1]) | Plant response rating, Rape (rape; [2]) | Plant response rating, Rape (rape; [3]) | Rape plant response rating (0 to 10 scale) (rape; Preemergence, Rate 125 g/ha) | Rape plant response rating (rape; Rate 62 g/ha, Postemergence)
7: Wild oats plant response rating (wild oat; Preemergence, Rate 500 g/ha) | Crabgrass plant response rating (0 to 10 scale) (crabgrass; Preemergence, Rate 125 g/ha) | Morningglory plant response rating (morningglory; Rate 62 g/ha, Postemergence)
1: Plant response rating, Soybean (soybean; [2]) | Plant response rating, Soybean (soybean; [4])
6: Velvetleaf plant response rating (velvetleaf; Preemergence, Rate 500 g/ha)
4: Sugarbeets plant response rating (sugar beet; Preemergence, Rate 500 g/ha) | Plant response rating, Wild oats (wild oat; [4]) | Redroot pigweed plant response rating (0 to 10 scale) (pigweed; Preemergence, Rate 125 g/ha) | Plant response rating, Redroot pigweed (pigweed; [4]) | Soybean plant response rating (soybean; Preemergence, Rate 500 g/ha)
2: B. signalgrass plant response rating (surinam grass; Preemergence, Rate 250 g/ha) | B. signalgrass plant response rating (surinam grass; Preemergence, Rate 500 g/ha) | Blackgrass plant response rating (blackgrass; Preemergence, Rate 250 g/ha) | Sugarbeets plant response rating (sugar beet; Preemergence, Rate 250 g/ha) | Plant response rating, Sugarbeets (sugar beet; [4]) | Plant response rating, Ducksalad (duck salad; [10]) | Plant response rating, Ducksalad (duck salad; [12]) | Plant response rating, Crabgrass (crabgrass; [2]) | Plant response rating, Giant foxtail (giant foxtail; [2]) | Rape plant response rating (rape; Preemergence, Rate 250 g/ha)
10: Redroot pigweed plant response rating (pigweed; Preemergence, Rate 250 g/ha) | Redroot pigweed plant response rating (pigweed; Preemergence, Rate 500 g/ha) | Crabgrass plant response rating (crabgrass; Preemergence, Rate 500 g/ha) | Plant response rating, Morningglory (morningglory; [1]) | Plant response rating, Morningglory (morningglory; [2]) | Plant response rating, Morningglory (morningglory; [4]) | Giant foxtail plant response rating (giant foxtail; Preemergence, Rate 250 g/ha) | Giant foxtail plant response rating (giant foxtail; Preemergence, Rate 500 g/ha)
